Data published in US20070009484A1, “Compositions and methods involving MDA-7 for the treatment of cancer” (Board of Regents, The University of Texas System, priority 2005, published 2007).
Marks after values point to notes of the source that are not given here. Peptide text beside a SMILES is read from it. * marks the point of attachment. Cbz = O=C(OCc1ccccc1)*; CH2F = FC*

Columns and labels:
[1] = cited from earlier work
[2] = test system: A549 human lung cancer cells; test: Flow cytometry analysis of apoptosis (propidium iodide); type: cell-based; conditions: for percentage of apoptosis: 48 hrs
Procedure: (§1) Apoptosis of cells was measured by propidium iodide staining and FACS analysis. Cells were harvested, pelleted by centrifugation and resuspended in phosphate-buffered saline containing 50 μg/ml propidium iodide, 0.1% Triton X-100, and 0.1% sodium citrate and vortexed prior to FACS analysis (Becton-Dickenson FACScan, Mountain View, Calif.; FL-3 channel).

[3] = test system: H460 human lung cancer cells; test: as above; type: cell-based; conditions: for percentage of apoptosis: 48 hrs
Procedure: as §1

MCF7/Her18 cells [4] = test: Prostaglandin E2 (PGE2) measurement; type: cell-based, human; conditions: 72-hour treatment, vectors MOI 2000 vp/cell, celecoxib 20 uM
Procedure: (§2) After a 72-hr incubation, 3 μl of arachidonic acid (1 mM) was added to the culture media to boost the PGE2 production for 30 minutes. The supernatant was collected and stored at −80° C. until PGE2 concentration was measured using an enzyme-linked immunoassay kit (Cayman Chemical, Ann Arbor, Mich.) according to the manufacturer's manual. The final results from the triplicated values were expressed as pg/ml.

MDA-MB-436 cells [5] = test: Prostaglandin E2 (PGE2) measurement; type: cell-based, human; conditions: 72-hour treatment, vectors MOI 1000 vp/cell, celecoxib 50 uM
Procedure: as §2

MCF7/Her18 cells [6] = test: Cell cycle and apoptosis assay (PI, Annexin V/FITC, TUNEL); type: cell-based, human
Excerpt: (§3) All the cultures were subconfluent at the time of harvest. Harvested cells were fixed with ice-cold 80% ethanol, stained with propidium iodide (PI) (Sigma, St. Louis, Mo.), and analyzed using a flow cytometer (FCM) (EPICS XL-MCL, Coulter, Miami, Fla.) as described previously. Cells floating in the media and trypsinized adherent cells were harvested and pelleted. The collected cells were washed, and then stained with Annexin V-fluorescein isothiocyanate (FITC)/PI using an Annexin V/FITC apoptosis detection kit (BD Biosciences, Franklin Lake, N.J.). The BrdU (5-bromo-2-deoxyuridine)/terminal deoxynucleotidyl transferase (TdT)-mediated 2′-deoxyuridine 5′-triphosphate (dUTP)-biotin nick end labeling (TUNEL) assay (APO-Direct, BD Biosciences, Franklin Lake, N.J.) was performed according to the manufacturer's protocol. Briefly, paraformaldehyde-fixed cells were washed and incubated with staining solution (10 μl of TdT reaction buffer, 0.75 μl of TdT enzyme, and 8 μl of FITC-dUTP) overnight. The following day, cells were rinsed and resuspended in 1 ml of PI/RNase solution. Following incubation in the dark for 30 minutes at room temperature, flow cytometry was performed to obtain the percentage of apoptotic cells. Cell cycles were analyzed with a program combined with the FCM (Multicycle, Phoenix Flow System, San Diego, Calif.).

MDA-MB-436 cells [7] = test: as above; type: cell-based, human
Excerpt: as §3

MDA-MB453 cells = test: Cell viability by trypan blue exclusion assay; type: cell-based, human; conditions: for cell death (cytotoxicity) by cytokine protein: 30 ng/ml, 96 h
Procedure: (§4) MDA-MB231 and MDA-MB453 breast cancer lines were obtained from the America Type Culture Collection (ATCC, Manassas, Va.) and were maintained in DMEM (Hyclone, Inc., Logan, Utah) supplemented with 10% fetal bovine serum (Life Technologies, Inc.), 100 units/ml penicillin, 100 μg/ml streptomycin, 2 mM L-glutamine, and HEPES buffer (Life Technologies, Inc., Grand Island, N.Y.). The cells were screened routinely to verify lack of mycoplasma contamination and were used in the log phase of growth. […] Rabbit phospho-Stat3 (Tyr705) antibody was purchased from Cell Signaling Technology Inc. (Beverly, Mass.), β-Actin monoclonal antibody and terminal deoxynucleotidyl transferase-mediated dUTP-biotin nick-end labeling (TUNEL) kits were purchased from Oncogene Research Products (San Diego, Calif.), and all other primary and secondary antibodies were purchased from Santa Cruz Biotechnology (Santa Cruz, Calif.). Cell viability was analyzed by trypan blue exclusion assay. Cells were trypsinized and an aliquot suspended 1:1 volume with 0.4% trypan blue.
(§5) Full-length mda-7 cDNA was cloned into pCEP4 FLAG vector (Invitrogen, San Diego, Calif.) containing the CMV promoter. The plasmid was transfected into HEK 293 cells, and stable sub-clones were isolated using hygromycin (0.4 μg/ml).
(§6) The mda-7 gene was linked to an internal CMV-IE promoter, followed by an SV40 polyadenylation sequence. The same adenoviral vector containing the sequence for expression of luciferase (Ad-luc) was used as control virus. Cells were plated 1 day before infection.

MDA-MB231 cells = test: Cell viability by trypan blue exclusion assay; type: cell-based, human; conditions: for cell death (cytotoxicity) by cytokine protein: 30 ng/ml, 96 h
Procedure: as §4, §5, §6

STAT3 = test: Phospho-STAT3 immunofluorescence assay; type: cell-based, human; conditions: MDA-MB231 and MDA-MB453 cells
Procedure: Cells growing in chamber slides were treated with human IL-24 protein in various concentrations (0-20 ng/ml) for 30 min. Cells were fixed with ethanol:acetic acid (9.5:0.5) and then stained with phospho-Stat3 primary antibody and FITC-labeled secondary antibody. The slides were analyzed using a Nikon fluorescence microscope.

T47D cells [8] = test: Annexin V apoptosis assay; type: cell-based, human; conditions: T47D cells treated with Ad-mda7 2000 vp/cell
Procedure: Apoptosis was measured by TUNEL and Annexin V assays. […] Cell viability was determined by trypan-blue exclusion assay.

T47D cells [9] = test: 3H-thymidine cell proliferation assay; type: cell-based, human; conditions: Taxotere 0.5-2 ng/mL, 3 days
Procedure: (§8) Cells were plated at 500-2000 cells/well in 96-well format for ^3H-thymidine incorporation-assays, or at 10^5-10^6 cells/well in a 6-well plate format for protein expression, trypan blue viability or apoptosis assays. In drug combination studies, drugs were added once just prior to addition of vectors and cells were continuously exposed to agents.
(§9) The cells were harvested using Trypsin/EDTA (GIBCO), collected on a Filter using a Packard Filtermate cell Harvester, and washed in deionized water and methanol following the manufacturer protocols. The filters were dried and analyzed using a Matrix 9600 (Packard).

MCF-7 cells = test: 3H-thymidine cell proliferation assay; type: cell-based, human; conditions: Taxotere 0.5-2 ng/mL, 3 days
Procedure: as §8, §9

HUVECs [10] = test: Cell viability assay (trypan blue exclusion); type: cell-based, human; conditions: Ad-mda7 1000 vp/cell; Bivacizumab 0.78, 1.56, 3,125 ug/ml; 48 h and 72 h
Procedure: (§7) H1299 cells (2×10^5/well) and HUVECs (3×10^5/well) were seeded in six-well plates. […] At 48 hours and […] after the treatment, cells were trypsinized and analyzed for trypan blue cell exclusion assay.

H1299 cells = test: Cell viability assay (trypan blue exclusion); type: cell-based; conditions: Ad-mda7 1000 vp/cell; Bivacizumab 0.78, 1.56, 3,125 ug/ml; up to 72 hours
Procedure: Cells treated with PBS served as a control. Cells were harvested at various time points as listed in figures and subjected to cell viability assay as previously described (Saeki et al., 2000).
as §7

[11] = test system: H1299 tumors in nude mice; test: Subcutaneous H1299 xenograft; type: in vivo, mouse; conditions: vector 1×10^10 vp intratumorally, Avastin 5 mg/Kg (100 ug/body) i.p., twice a week, 28 days
Procedure: Bivacizumab (100 ug/body) was given i.p. twice a week. Animals were weighed weekly and tumor growth was measured thrice a week as described previously (Saeki et al., 2002; Ramesh et al., 2003). At 28 days after the first treatment, all animals were killed via CO2 inhalation, and tumors were collected for histopathological examination and Western blot analysis. Two different sets of experiments were done.

HUVECs [12] = test: Endothelial cell proliferation with conditioned medium from treated H1299 cells; type: cell-based, human; conditions: medium collected at 48 h; compared to PBS and Ad-luc
Procedure: For analysis of the effect of conditioned medium from Ad-mda7-treated H1299 on endothelial cell proliferation, human umbilical vein endothelial cells (HUVECs) were seeded in six-well plates (3×10^5 cells/well). […] HUVECs were incubated for an additional 3 days and later harvested and subjected to cell viability assay (Ramesh et al., 2003; Mhashilkar et al., 2001).

[13] = 48 h, two doses of 17AAG, combination compared with Ad-luc and 17AAG
[14] = 30 ng/ml IL-24 with IL-10 0-300 ng/ml

CS(=O)(=O)c1ccc(C2=C(c3ccccc3)C(=O)OC2)cc1 [rofecoxib, 4-[4-(methylsulfonyl)phenyl]-3-phenyl-2-(5H)furanone]
time of peak plasma levels after an oral dose ([1]; in vivo): 2 to 3 h | delay of plasma levels with a high fat meal ([1]; in vivo): 1 to 2 h

C=CCNC1=C2C[C@@H](C)C[C@H](OC)[C@H](O)[C@@H](C)/C=C(\C)[C@H](OC(N)=O)[C@@H](OC)/C=C\C=C(/C)C(=O)NC(=CC1=O)C2=O [17AAG, 17-allyl-aminogeldanamycin]
cell death / apoptosis with 17AAG [2, 13]: resulted in cell death | cell death / apoptosis with 17AAG [3, 13]: resulted in cell death

Cc1ccc(-c2cc(C(F)(F)F)nn2-c2ccc(S(N)(=O)=O)cc2)cc1 [Celecoxib, 4-[5-(4-methylphenyl)-3-(trifluoromethyl)-1H-pyrazol-1-yl]benzenesulfonamide]
effective half-life ([1]; fasted conditions): roughly 11 hours | time of peak plasma levels after an oral dose ([1]; in vivo): roughly 3 hours | delay of plasma levels with a high fat meal ([1]; in vivo): 1 to 2 h | increase in total absorption with a high fat meal ([1]; in vivo): 10-20% | dose excreted in feces ([1]; single dose): 57% | dose excreted in the urine ([1]; single dose): 27% | Prostaglandin E2 production (MCF7/Her18 cells [4]): 16.7^§ pg/ml | Prostaglandin E2 production (MDA-MB-436 cells [5]): 116.7^§ pg/ml | cell cycle effect (MCF7/Her18 cells [6]; 72-hour treatment): blocked more cells at the G1 checkpoint than Ad-mda7 | apoptosis (Annexin V/FITC, TUNEL) (MCF7/Her18 cells [6]; 72-hr treatment): promoted apoptosis | cell cycle effect (MDA-MB-436 cells [7]; 72-hour treatment): blocked more cells at the G1 checkpoint than Ad-mda7 | apoptosis (Annexin V/FITC, TUNEL) (MDA-MB-436 cells [7]; 72-hr treatment): promoted apoptosis

IL-22: IL-10 family cytokine
cell death (cytotoxicity) by cytokine protein (MDA-MB453 cells): none of these induced cell death above background levels | cell death (cytotoxicity) by cytokine protein (MDA-MB231 cells): none of these induced cell death above background levels

IL-10: recombinant IL-10
STAT3 activation (phospho-STAT3) (STAT3): able to activate STAT3 | effect on IL-24-protein-induced killing (MDA-MB453 cells; [14]): significantly inhibited IL-24-protein-induced killing in a dose-dependent manner | cell death (cytotoxicity) by cytokine protein (MDA-MB453 cells): none of these induced cell death above background levels | effect on IL-24-protein-induced killing (MDA-MB231 cells; [14]): significantly inhibited IL-24-protein-induced killing in a dose-dependent manner | cell death (cytotoxicity) by cytokine protein (MDA-MB231 cells): none of these induced cell death above background levels

COC(=O)C[C@H](NC(=O)[C@H](C)NC(=O)[C@@H](NC(=O)OCc1ccccc1)C(C)C)C(=O)CF [ZVAD] (Cbz-Val-Ala-Asp(OMe)-CH2F)
reduction of Ad-mda7 induced apoptosis (T47D cells [8]): 40%

COC1=C2C[C@@H](C)C[C@H](OC)[C@H](O)[C@@H](C)/C=C(\C)[C@H](OC(N)=O)[C@@H](OC)/C=C\C=C(/C)C(=O)NC(=CC1=O)C2=O [GA, Geldanamycin]
percentage of apoptosis ([2]; GA 50 nm): 6.3% | percentage of apoptosis ([2]; GA 150 nm): 23.6% | percentage of apoptosis ([3]; GA 50 nm): 5.7% | percentage of apoptosis ([3]; GA 150 nm): 21%

Cc1onc(-c2ccccc2)c1-c1ccc(S(N)(=O)=O)cc1 [valdecoxib, 4-(5-methyl-3-phenyl-4-isoxazolyl)benzenesulfonamide]
active metabolite concentration in human plasma relative to parent ([1]; human plasma): about 10% | time of peak plasma levels after an oral dose ([1]; in vivo): about 3 hours | delay of plasma levels with a high fat meal ([1]; in vivo): 1 to 2 h

CC(=O)O[C@@]12CO[C@@H]1C[C@H](O)[C@@]1(C)C(=O)[C@H](O)C3=C(C)[C@@H](OC(=O)[C@H](O)[C@@H](NC(=O)OC(C)(C)C)c4ccccc4)C[C@@](O)([C@@H](OC(=O)c4ccccc4)[C@H]21)C3(C)C [Taxotere, docetaxel]
inhibition of thymidine incorporation (T47D cells [9]): approximately 40% | inhibition of thymidine incorporation (MCF-7 cells): approximately 40%

Bevacizumab: VEGF inhibitor, monoclonal antibody that specifically binds VEGF
cell viability / toxicity (HUVECs [10]): inhibited HUVEC viability | cell viability / toxicity (H1299 cells): did not show harmful effect | tumor growth [11]: Significant inhibition of tumor growth | HUVEC proliferation with conditioned medium from treated H1299 cells (HUVECs [12]): significantly inhibited HUVEC proliferation

B1: IL-24: purified human IL-24 (MDA-7) protein from 293-IL24 cell supernatant (protein)
chain: QEFHFGPCQVKGVVPQKLWEAFWAVKDTMQAQDNITSARLLQQEVLQNVSDAESCYLVHTLLEFYLKTVFKNYHNRTVEVRTLKSFSTLANNFVLIVSQLQPSQENEMFSIRDSAHRRFLLFRRAFKQLDVEAALTKALGEVDILLTWMQKFYKL
STAT3 activation (phospho-STAT3) (STAT3): able to activate STAT3 | cell death (cytotoxicity) by cytokine protein (MDA-MB453 cells): induction of significant cell death | cell death (cytotoxicity) by cytokine protein (MDA-MB231 cells): induction of significant cell death

B2: IL-19: IL-10 family cytokine (protein, UniProt Q9UHD0 25-177, looked up)
Interleukin-19: LRRCLISTDMHHIEESFQEIKRAIQAKDTFPNVTILSTLETLQIIKPLDVCCVTKNLLAFYVDRVFKDHQEPNPKILRKISSIANSFLYMQKTLRQCQEQRQCHCRQEATNATRVIHDNYDQLEVHAAAIKSLGELDVFLAWINKNHEVMFSA
cell death (cytotoxicity) by cytokine protein (MDA-MB453 cells): none of these induced cell death above background levels | cell death (cytotoxicity) by cytokine protein (MDA-MB231 cells): none of these induced cell death above background levels
